From patent publication US5708174A, “Heterocyclic-esters or -amides used as 5-HT4 receptor antagonists” (SmithKline Beecham p.l.c., priority 1992, dated 1998)
Where a name gives a salt, the structure may show the parent alone.

Test system: 5-HT4 receptor
Assay: Guinea pig colon 5-HT4 receptor antagonist activity (longitudinal muscle-myenteric plexus, 5-HT-evoked contraction)
Type: cell-based
Details: guinea-pig distal colon longitudinal muscle-myenteric plexus; contraction evoked by 5-HT
Experimental: 5-HT4 RECEPTOR ANTAGONIST ACTIVITY
Male guinea-pigs, weighing 250-400 g are used. Longitudinal muscle-myenteric plexus preparations, approximately 3 cm long, are obtained from the distal colon region. These are suspended under a 0.5 g load in isolated tissue baths containing Krebs solution bubbled with 5% CO2 in O2 and maintained at 37° C. In all experiments, the Krebs solution also contains methiothepin 10^-7 M and granisetron 10^-6 M to block effects at 5-HT1, 5-HT2 and 5-HT3 receptors.
After construction of a simple concentration-response curve with 5-HT, using 30s contact times and a 15 min dosing cycle, a concentration of 5-HT is selected so as to obtain a contraction of the muscle approximately 40-70% maximum(10^-9 M approx). The tissue is then alternately dosed every 15 min with this concentration of 5-HT and then with an approximately equi-effective concentration of the nicotine receptor stimulant, dimethylphenylpiperazinium (DMPP). After obtaining consistent responses to both 5-HT and DMPP, increasing concentrations of a putative 5-HT4 receptor antagonist are then added to the bathing solution. The effects of this compound are then determined as a percentage reduction of the contractions evoked by 5-HT or by DMPP. […] A compound which reduces the response to 5-HT but not to DMPP is believed to act as a 5-HT4 receptor antagonist.

## CCCCN1CCC(COC(=O)c2cccc3cccnc23)CC1 [Example 1-2, (1-Butyl-4-piperidinylmethyl)quinolinyl-8-carboxylate hydrochloride]
  5-HT4 receptor antagonist activity (in words): particularly good activity
